{"source": "patent US4226610A", "about": "“Herbicidal compounds, preparation thereof and herbicides containing the same” (Meiji Selka Kaisha, Ltd., priority 1978, dated 1980)", "key": {"miyakozasa": {"system": "miyakozasa", "experiment": "Experiment 2 foliar application in Japanese cypress afforested land", "assay_type": "in vivo, Sasa nipponica Makino et Shibata", "conditions": "0.125%; after 3 months", "procedure": "(§1) The detail of the assessment made in the following Experiments of the invention was as follows:\nThe compounds of the invention and other compounds listed in Table 4. were diluted to prescribed concentrations and sprayed to shrubs by foliar application in a Japanese cypress afforested land in an amount of 150 liter per 10 are.\nAfter 30 days and 3 months, the killing index (0, no effect; 5, death) was determined.\nThe heights of plants were 50-70 cm. for Japanese cypress, about 50 cm. for chestnut, 50-90 cm. for miyakozasa, about 100 cm. for eulalia and 70-100 cm. for kumaichigo, respectively."}, "Solubility (Table 1)": {"experiment": "Solubility (Table 1)", "conditions": "ethanol, organic solvent or mixture"}, "water hyacinth": {"system": "water hyacinth", "experiment": "Experiment 4 foliar application to water hyacinths with surfactants", "assay_type": "in vivo, Eichhornia crassipes Solms", "set-up": "key to Killing index: killing index: 0 = no effect, 5 = death", "source_text": "as §1\nFour months after treatment, evaluation was made for inhibition of reproduction expressed in terms of symbols ranging from (-) to (+++) where (-) means no reproduction, namely complete suppression of reproduction, (±) remarkable suppression of reproduction; (+) considerable suppression of reproduction; (++) medium supprestion of reproduction; and (+++) no suppression of reproduction.\nWater was placed in 20 cm.×30 cm. plastic vessels and a liquid fertilizer was added thereto.\nTwo water hyacinths were floated in each vessel. 0.1 or 0.2% of each of surfactants listed in Table 6 were added to 0.1 or 0.2% aqueous solutions of DL-AMPB choline. Each solution was sprayed by foliar application in an amount of 100 liter per 10 are. The killing index (0, no effect; 5, death) after 21 days and 3 months and the reproduction-inhibiting effect (-, no reproduction; +++, maximum reproduction) after 3 months were determined."}, "[1]": {"conditions": "0.1%, octylphenyl polyoxyethanol 0.2%, 3 months"}}, "data": [{"compound": "C[C@H](NC(=O)[C@H](C)NC(=O)[C@@H](N)CCP(C)(=O)O)C(=O)O", "note": "[SF-1293 choline, (L-2-Amino-4-methylphosphinobutyryl)-L-alanyl-L-alanine choline]", "values": [{"measurement": "Killing index", "setting": "miyakozasa", "result": 4.5}, {"measurement": "solubility", "setting": "Solubility (Table 1)", "result": 310, "unit": "mg/mL"}]}, {"compound": "CP(=O)(O)CCC(N)C(=O)O", "note": "(racemic) [DL-AMPB choline]", "values": [{"measurement": "Reproduction-inhibiting effect", "setting": "water hyacinth; 0.1%, no surfactant, 3 months", "result": "+++"}, {"measurement": "Reproduction-inhibiting effect", "setting": "water hyacinth; 0.1%, octylphenyl polyoxyethanol 0.1%, 3 months", "result": "+"}, {"measurement": "Killing index", "setting": "water hyacinth; [1]", "result": 4.5}, {"measurement": "Reproduction-inhibiting effect", "setting": "water hyacinth; [1]", "result": "±"}, {"measurement": "Reproduction-inhibiting effect", "setting": "water hyacinth; 0.1%, polyoxyethylene alkylaryl ether 0.1%, 3 months", "result": "++"}, {"measurement": "Killing index", "setting": "water hyacinth; 0.1%, polyoxyethylene alkylaryl ether 0.1%, 21 days", "result": 2.5}, {"measurement": "Reproduction-inhibiting effect", "setting": "water hyacinth; 0.1%, polyoxyethylene alkylaryl ether 0.2%, 3 months", "result": "±"}, {"measurement": "Reproduction-inhibiting effect", "setting": "water hyacinth; 0.1%, polyoxyethylene dodecyl ether 0.1%, 3 months", "result": "++"}, {"measurement": "Killing index", "setting": "water hyacinth; 0.1%, polyoxyethylene dodecyl ether 0.1%, 21 days", "result": 2.5}, {"measurement": "Reproduction-inhibiting effect", "setting": "water hyacinth; 0.1%, polyoxyethylene dodecyl ether 0.2%, 3 months", "result": "±"}, {"measurement": "Reproduction-inhibiting effect", "setting": "water hyacinth; 0.1%, polyoxyethylene sorbitan monooleate 0.1%, 3 months", "result": "++"}, {"measurement": "Killing index", "setting": "water hyacinth; 0.1%, polyoxyethylene sorbitan monooleate 0.1%, 21 days", "result": 2.5}, {"measurement": "Reproduction-inhibiting effect", "setting": "water hyacinth; 0.1%, polyoxyethylene sorbitan monooleate 0.2%, 3 months", "result": "±"}, {"measurement": "Reproduction-inhibiting effect", "setting": "water hyacinth; 0.1%, polyoxyethylene sorbitan monostearate 0.1%, 3 months", "result": "++"}, {"measurement": "Killing index", "setting": "water hyacinth; 0.1%, polyoxyethylene sorbitan monostearate 0.1%, 21 days", "result": 2.5}, {"measurement": "Reproduction-inhibiting effect", "setting": "water hyacinth; 0.1%, polyoxyethylene sorbitan monostearate 0.2%, 3 months", "result": "±"}, {"measurement": "Killing index", "setting": "water hyacinth; 0.2%, no surfactant, 3 months", "result": 4.5}, {"measurement": "Reproduction-inhibiting effect", "setting": "water hyacinth; 0.2%, no surfactant, 3 months", "result": "±"}, {"measurement": "Reproduction-inhibiting effect", "setting": "water hyacinth; 0.2%, octylphenyl polyoxyethanol 0.1%, 3 months", "result": "-"}, {"measurement": "Reproduction-inhibiting effect", "setting": "water hyacinth; 0.2%, octylphenyl polyoxyethanol 0.2%, 3 months", "result": "-"}, {"measurement": "Reproduction-inhibiting effect", "setting": "water hyacinth; 0.2%, polyoxyethylene alkylaryl ether 0.1%, 3 months", "result": "-"}, {"measurement": "Killing index", "setting": "water hyacinth; 0.2%, polyoxyethylene alkylaryl ether 0.1%, 21 days", "result": 4.5}, {"measurement": "Reproduction-inhibiting effect", "setting": "water hyacinth; 0.2%, polyoxyethylene alkylaryl ether 0.2%, 3 months", "result": "-"}, {"measurement": "Reproduction-inhibiting effect", "setting": "water hyacinth; 0.2%, polyoxyethylene dodecyl ether 0.1%, 3 months", "result": "-"}, {"measurement": "Killing index", "setting": "water hyacinth; 0.2%, polyoxyethylene dodecyl ether 0.1%, 21 days", "result": 4.5}, {"measurement": "Reproduction-inhibiting effect", "setting": "water hyacinth; 0.2%, polyoxyethylene dodecyl ether 0.2%, 3 months", "result": "-"}, {"measurement": "Reproduction-inhibiting effect", "setting": "water hyacinth; 0.2%, polyoxyethylene sorbitan monooleate 0.1%, 3 months", "result": "-"}, {"measurement": "Killing index", "setting": "water hyacinth; 0.2%, polyoxyethylene sorbitan monooleate 0.1%, 21 days", "result": 4.5}, {"measurement": "Reproduction-inhibiting effect", "setting": "water hyacinth; 0.2%, polyoxyethylene sorbitan monooleate 0.2%, 3 months", "result": "-"}, {"measurement": "Reproduction-inhibiting effect", "setting": "water hyacinth; 0.2%, polyoxyethylene sorbitan monostearate 0.1%, 3 months", "result": "-"}, {"measurement": "Killing index", "setting": "water hyacinth; 0.2%, polyoxyethylene sorbitan monostearate 0.1%, 21 days", "result": 4.5}, {"measurement": "Reproduction-inhibiting effect", "setting": "water hyacinth; 0.2%, polyoxyethylene sorbitan monostearate 0.2%, 3 months", "result": "-"}]}]}
